One compound from patent publication US11219221B2 (FarmHannong Co., Ltd., priority 2017, dated 2022) can be followed below.

Assay [1] deals with Spirulina subsalsa PPO CyPPO16 (SEQ ID NO: 1) variant A162C (MBP fusion). Briefly: PPO enzyme inhibition (IC50), MBP-fused PPO. The class given is biochemical. The following applies: 50 μM protoporphyrinogen IX, pH 8.0, room temperature, 30 min. On the procedure: (§1) Thus, PPO proteins of wild type and variants were expressed as fused to MBP and were used for experiments.
(§2) The following process for purification of PPO protein was performed in a 4° C. cold room. Amylose resin (NEB) was packed to 1.5×15 cm column (Bio-Rad, Econo Columns 1.5×15 cm, glass chromatography column, max. vol), and the obtained protein extracts were loaded to the column at a flow rate of 0.2 ml/min. The column was washed with 3 column volumes of buffer and the presence of protein in the washing solution was examined. When the protein was no longer detected, the washing procedure was terminated. Then, the MBP-PPO protein was eluted with approximately 2 column volumes of buffer containing 20 mM maltose. The protein concentration of each eluent was determined and the elution was stopped when the protein was no longer detected. Ten microliter of each fraction was investigated for protein quantification and SDS-PAGE analysis. The highly pure fractions of PPO protein variants were used for the enzyme assay.
(§3) Since protoporphyrinogen IX, a substrate of PPO protein, was not commercially available, it was chemically synthesized in the laboratory. Overall process was performed in dark under nitrogen stream. […] of protoporphyrin IX was dissolved in 20 ml of 20% (v/v) EtOH, and stirred under dark condition for 30 minutes. The obtained protoporphyrin IX solution was put into a 15 ml screw tube in an amount of 800 μl, and flushed with nitrogen gas for 5 minutes. To this, 1.5 g of sodium amalgam was added and vigorously shaken for 2 minutes. The lid was opened to exhaust hydrogen gas in the tube. Thereafter, the lid was closed and incubated for 3 minutes. The protoporphyrinogen IX solution was filtered using syringe and cellulose membrane filter. […] To determine the enzyme activity of PPO protein, a reaction mixture was prepared with the following composition (based on 10 ml): 50 mM Tris-Cl (pH 8.0); 50 mM NaCl; 0.04% (v/v) Tween 20; 40 mM glucose (0.072 g); 5 units glucose oxidase (16.6 mg); and 10 units catalase (1 μl).
(§4) Hundred and eighty microliters of a reaction mixture containing the purified PPO protein were placed in 96 well plates and 20 μl of […] were added. […] The reaction proceeded at room temperature for 30 min and the fluorescence of protoporphyrin IX was measured using Microplate reader (Sense, Hidex) (excitation: 405 nm; emission: 633 nm). […] To this, 2.7 N HCl was added, and the absorbance at 408 nm was measured. A standard curve was generated using standard protoporphyrin IX, and PPO activity was measured by calibration of protoporphyrin IX using the standard curve of protoporphyrin IX.

Assay [2] addresses Spirulina subsalsa PPO CyPPO16 (SEQ ID NO: 1) variant A162L (MBP fusion). Nature of the assay: PPO enzyme inhibition (IC50), MBP-fused PPO. The format is biochemical. The note with it: 50 μM protoporphyrinogen IX, pH 8.0, room temperature, 30 min. The procedure:
as §1, §2, §3, §4

The target of assay [3] is Spirulina subsalsa PPO CyPPO16 (SEQ ID NO: 1) variant F156A (MBP fusion). Nature of the assay: PPO enzyme inhibition (IC50), MBP-fused PPO. The class given is biochemical. The following applies: 50 μM protoporphyrinogen IX, pH 8.0, room temperature, 30 min. The procedure:
as §1, §2, §3, §4

Assay [4] concerns the target Spirulina subsalsa PPO CyPPO16 (SEQ ID NO: 1) variant F324V (MBP fusion). Briefly: PPO enzyme inhibition (IC50), MBP-fused PPO. The class given is biochemical. The note with it: 50 μM protoporphyrinogen IX, pH 8.0, room temperature, 30 min. The procedure:
as §1, §2, §3, §4

Assay [5] has as its target Spirulina subsalsa PPO CyPPO16 (SEQ ID NO: 1) variant L327T (MBP fusion). Briefly: PPO enzyme inhibition (IC50), MBP-fused PPO. The format is biochemical. The following applies: 50 μM protoporphyrinogen IX, pH 8.0, room temperature, 30 min. The procedure:
as §1, §2, §3, §4

Assay [6] addresses Spirulina subsalsa PPO CyPPO16 (SEQ ID NO: 1) variant R85A (MBP fusion). Briefly: PPO enzyme inhibition (IC50), MBP-fused PPO. The class given is biochemical. The note with it: 50 μM protoporphyrinogen IX, pH 8.0, room temperature, 30 min. On the procedure: as §1, §2, §3, §4
The target of assay [7] is Spirulina subsalsa PPO CyPPO16 (SEQ ID NO: 1) variant V160C (MBP fusion). Nature of the assay: PPO enzyme inhibition (IC50), MBP-fused PPO. The format is biochemical. The note with it: 50 μM protoporphyrinogen IX, pH 8.0, room temperature, 30 min. On the procedure: as §1, §2, §3, §4
The target in assay [8] is Spirulina subsalsa PPO CyPPO16 (SEQ ID NO: 1) variant V305M (MBP fusion). Nature of the assay: PPO enzyme inhibition (IC50), MBP-fused PPO. The note with it: 50 μM protoporphyrinogen IX, pH 8.0, room temperature, 30 min. The class given is biochemical. The procedure: as §1, §2, §3, §4
Assay [9] deals with Spirulina subsalsa PPO CyPPO16, wild type, SEQ ID NO: 1 (MBP fusion). Briefly: PPO enzyme inhibition (IC50), MBP-fused PPO. The format is biochemical. The following applies: 50 μM protoporphyrinogen IX, pH 8.0, room temperature, 30 min. The procedure: as §1, §2, §3, §4
The target in assay [10] is Thermosynechococcus sp. NK55a PPO CyPPO17 (SEQ ID NO: 3) variant A166C (MBP fusion). Nature of the assay: PPO enzyme inhibition (IC50), MBP-fused PPO. The note with it: 50 μM protoporphyrinogen IX, pH 8.0, room temperature, 30 min. The format is biochemical. On the procedure: as §1, §2, §3, §4
For assay [11], the target named is Thermosynechococcus sp. NK55a PPO CyPPO17 (SEQ ID NO: 3) variant F160A (MBP fusion). Briefly: PPO enzyme inhibition (IC50), MBP-fused PPO. The format is biochemical. The note with it: 50 μM protoporphyrinogen IX, pH 8.0, room temperature, 30 min. The procedure: as §1, §2, §3, §4
The target in assay [12] is Thermosynechococcus sp. NK55a PPO CyPPO17 (SEQ ID NO: 3) variant F323V (MBP fusion). Briefly: PPO enzyme inhibition (IC50), MBP-fused PPO. The following applies: 50 μM protoporphyrinogen IX, pH 8.0, room temperature, 30 min. The class given is biochemical. On the procedure: as §1, §2, §3, §4
Assay [13] addresses Thermosynechococcus sp. NK55a PPO CyPPO17 (SEQ ID NO: 3) variant A166L (MBP fusion). Nature of the assay: PPO enzyme inhibition (IC50), MBP-fused PPO. The format is biochemical. The following applies: 50 μM protoporphyrinogen IX, pH 8.0, room temperature, 30 min. The procedure:
as §1, §2
as §3, with “Overall” for “Since protoporphyrinogen IX, a substrate of PPO protein, was not commercially available, it was chemically synthesized in the laboratory. Overall”, “minutes.” for “minutes. The protoporphyrinogen IX solution was filtered using syringe and cellulose membrane filter.”
as §4

Assay [14] deals with Thermosynechococcus sp. NK55a PPO CyPPO17 (SEQ ID NO: 3) variant L326T (MBP fusion). Nature of the assay: PPO enzyme inhibition (IC50), MBP-fused PPO. The format is biochemical. The following applies: 50 μM protoporphyrinogen IX, pH 8.0, room temperature, 30 min. On the procedure: as §1, §2
as §3, with “Overall” for “Since protoporphyrinogen IX, a substrate of PPO protein, was not commercially available, it was chemically synthesized in the laboratory. Overall”, “minutes.” for “minutes. The protoporphyrinogen IX solution was filtered using syringe and cellulose membrane filter.”
as §4

Assay [15] deals with Thermosynechococcus sp. NK55a PPO CyPPO17 (SEQ ID NO: 3) variant R88A (MBP fusion). Nature of the assay: PPO enzyme inhibition (IC50), MBP-fused PPO. The class given is biochemical. The note with it: 50 μM protoporphyrinogen IX, pH 8.0, room temperature, 30 min. On the procedure:
as §1, §2
as §3, with “Overall” for “Since protoporphyrinogen IX, a substrate of PPO protein, was not commercially available, it was chemically synthesized in the laboratory. Overall”, “minutes.” for “minutes. The protoporphyrinogen IX solution was filtered using syringe and cellulose membrane filter.”
as §4

Assay [16] concerns the target Thermosynechococcus sp. NK55a PPO CyPPO17 (SEQ ID NO: 3) variant V164C (MBP fusion). Briefly: PPO enzyme inhibition (IC50), MBP-fused PPO. The format is biochemical. The note with it: 50 μM protoporphyrinogen IX, pH 8.0, room temperature, 30 min. The procedure: as §1, §2
as §3, with “Overall” for “Since protoporphyrinogen IX, a substrate of PPO protein, was not commercially available, it was chemically synthesized in the laboratory. Overall”, “minutes.” for “minutes. The protoporphyrinogen IX solution was filtered using syringe and cellulose membrane filter.”
as §4

The target of assay [17] is Thermosynechococcus sp. NK55a PPO CyPPO17 (SEQ ID NO: 3) variant V304M (MBP fusion). Briefly: PPO enzyme inhibition (IC50), MBP-fused PPO. The format is biochemical. The following applies: 50 μM protoporphyrinogen IX, pH 8.0, room temperature, 30 min. The procedure: as §1, §2
as §3, with “Overall” for “Since protoporphyrinogen IX, a substrate of PPO protein, was not commercially available, it was chemically synthesized in the laboratory. Overall”, “minutes.” for “minutes. The protoporphyrinogen IX solution was filtered using syringe and cellulose membrane filter.”
as §4

In assay [18] the target is Thermosynechococcus sp. NK55a PPO CyPPO17, wild type, SEQ ID NO: 3 (MBP fusion). Briefly: PPO enzyme inhibition (IC50), MBP-fused PPO. The format is biochemical. The note with it: 50 μM protoporphyrinogen IX, pH 8.0, room temperature, 30 min. The procedure:
as §1, §2
as §3, with “Overall” for “Since protoporphyrinogen IX, a substrate of PPO protein, was not commercially available, it was chemically synthesized in the laboratory. Overall”, “minutes.” for “minutes. The protoporphyrinogen IX solution was filtered using syringe and cellulose membrane filter.”
as §4

In assay [19] the test system is transgenic A. thaliana (CyPPO16, CyPPO17 and variants). Briefly: Herbicide spray test on Arabidopsis (T1). The format is in vivo, Arabidopsis thaliana. The following applies: 1 μM spray (100 ml, 0.24 m^2), 4-week-old T1 plants. The text has this:
A. thaliana was transformed with a binary vector having ORF of a selectable marker, Bar gene (glufosinate-tolerant gene), and ORF of each mutant gene of CyPPO16 and CyPPO17. The transgenic plant was examined for cross-tolerance towards glufosinate and PPO-inhibiting herbicides. The bar gene was also used to examine whether the transgene was stably inherited during generations. NOS promoter and E9 terminator were used for bar gene expression.
In order to express proteins of CyPPO16, CyPPO16 variants, CyPPO17, and CyPPO17 variants in plants, a CaMV35S promoter and a NOS terminator were used. Encoding genes of CyPPO16, CyPPO16 variants, CyPPO17, and CyPPO17 variants were introduced into binary vector using Xhol and BamHI restriction enzymes. Furthermore, for confirmation of the protein expression, hemagglutinin (HA) tag was fused to the C-terminal region of PPO protein coding gene using BamHI and Sad restriction enzymes. In addition, in order to transit protein to chloroplast, transit peptide (TP) gene (SEQ ID NO: 90) of AtPPO1 gene (SEQ ID NO: 89) was fused to N-terminal region of PPO protein coding gene using Xbal and Xhol restriction enzymes.
Transgenic plants were screened with glufosinate tolerance which was conferred by Bar gene expression in the binary vector. […]

What is called IC50 is the concentration that gives 50% inhibition. Low values mean greater potency, high ones weaker potency. For the compound `COC(=O)CCNC(=O)C(C)Sc1cc(-n2c(=O)cc(C(F)(F)F)n(C)c2=O)c(F)cc1Cl` (stereo not shown) [tiafenacil], the half-inhibitory concentration (IC50) is 79 nM in [1]; 193 nM in [2]; 60 nM in [3]; 103 nM in [4]; 40 nM in [5]; 119 nM in [6]. The IC50 in assay [7] was found to be 45 nM; in assay [8], 43 nM; in [9], 26 nM; in assay [10] it was 219 nM; in assay [11] it was 115 nM; in assay [12] it was 152 nM. The half-inhibitory concentration (IC50) in assay [13] was 1130 nM; in assay [14] it was 194 nM; in assay [15], 152 nM; in assay [16], 87 nM; in assay [17], 102 nM; in assay [18] it was 44 nM. In assay [19], the “Plant damage after herbicide spray” value is recorded as “no damage”.
